Assay results reported in patent publication US6413992B1, “3-(substituted pyridyl)-1,2,4-triazole compounds” (Dow AgroSciences LLC, priority 1998, dated 2002).

Compound	melting point [°C]
Cc1nc(-c2c(Cl)cncc2Cl)nn1-c1ccc(Cl)cc1 [Example 19, 1-(4-Chlorophenyl)-5-methyl-3-(3,5-dichloro-4-pyridyl)-1H-1,2,4-triazole]	142 to 145
Cn1nc(-c2c(Cl)cncc2Cl)nc1C1(C)CC1(Cl)Cl (centres unmarked) [Compound 133, 3-(3,5 dichloro-4-pyridyl)-5-(2,2-dichloro-1-methylcyclopropyl)-1-methyl[1,2,4]triazole]	79 to 83
Cn1nc(-c2c(Cl)cncc2Cl)nc1-c1ccncc1 [Compound 113]	130 to 132
Cn1nc(-c2c(Cl)cncc2Cl)nc1-c1ccc(Cl)cc1Cl [Compound 7]	79 to 81

The remaining lines, values ahead:

melting point [°C]	Compound
154 to 156	Cn1nc(-c2nc(F)c(F)c(F)c2F)nc1-c1ccc(Cl)cc1 [Compound 155]
113 to 117	Cc1ccc(-c2nc(-c3ncccc3Cl)nn2C)cc1 [Compound 159]
98 to 102	Cn1nc(-c2nc(Cl)ccc2Cl)nc1-c1ccc(Cl)cc1 [Compound 156]
105 to 107	Cn1nc(-c2ncc(Cl)cc2Cl)nc1-c1ccc(Cl)cc1 [Compound 158]
